The text below walks through data of patent US5834463A, “Condensed heterocyclic compounds, their production and use” (Takeda Chemical Industries, Ltd., priority 1994, dated 1998).

Broadly, the IC50 is the concentration needed to halve the response being measured.

SMILES strings stand for the structures.

For one experiment, the target named is T1, human GnRH receptor (Homo sapiens, UniProt P30968).
T1 construct: expressed in transfected cells; host or cells: CHO (Chinese Hamster Ovary) cells, membrane fraction
T1 sequence (P30968 1-328): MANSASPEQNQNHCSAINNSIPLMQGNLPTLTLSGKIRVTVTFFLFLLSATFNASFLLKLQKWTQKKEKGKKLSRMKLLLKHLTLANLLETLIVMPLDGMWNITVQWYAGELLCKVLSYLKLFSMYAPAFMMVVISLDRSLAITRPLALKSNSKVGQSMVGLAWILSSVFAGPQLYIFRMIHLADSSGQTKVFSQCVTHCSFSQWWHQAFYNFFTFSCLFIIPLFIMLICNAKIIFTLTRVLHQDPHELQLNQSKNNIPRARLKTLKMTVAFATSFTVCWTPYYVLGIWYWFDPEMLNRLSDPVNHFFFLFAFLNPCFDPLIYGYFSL
Description: Test for inhibition of ^125 I-leuprorelin binding to human GnRH receptor. To be noted: membrane fraction of CHO cells expressing human GnRH receptors, 25° C., 60 minutes, read-out: Binding Inhibitory Activity (IC50, μM) for human GnRH receptor. How it is done: (A) Preparation of ^125 I-leuprorelin
Ten μl of a 3×10^-4 M aqueous solution of leuprorelin and 10μl of 0.01 mg/ml lactoperoxidase in 0.1M Hepes buffer (pH7.4) were put in a tube, to which was added 10 μl of an Na^125 I solution (37 MBq). The mixture was stirred, to which was added 10 μl of 0.001% H2 O2, followed by allowing the reaction to proceed for 20 minutes at room temperature. To the reaction mixture was added 700 μl of a 0.05% TFA solution to stop the reaction. The product of was purified by means of a reverse-phase HPLC. Conditions of HPLC were as follows:
(D) Preparation of membrane fraction of CHO (Chinese Hamster Ovary) cells containing human GnRH receptors
CHO cells (10^9) expressing human GnRH receptors were suspended in a phosphate-buffered saline supplemented with 5 mM EDTA. The suspension was subjected to centrifugal separation for 5 minutes at 100×g. To the pellet of cells was added 10 ml of a homogenate buffer for cells (10 mM NaHCO3, 5 mM EDTA, pH 7.5), which was homogenated by using a Polytron homogenizer. Centrifugal separation was conducted for 15 minutes at 400×g. The supernatant was taken into an ultracentrifugal tube, which was subjected to centrifuge for one hour at 100,000×g to give precipitate of the membrane fraction. The precipitate was suspended in 2 ml of the assay buffer, which was centrifuged for one hour at 100,000×g. The membrane fraction recovered as precipitate was again suspended in 20 ml of the assay buffer, which was distributed to vials and stored at -80° C. until used.
(E) Determination of inhibitory rate of ^125 I-leuprorelin binding
In the cases of using rat and human pituitary membrane fractions prepared in (B) and (D), they were respectively diluted with the assay buffer to 200 μg/ml and 188 μl each was distributed to tubes. In the case of using bovine pituitary membrane fraction prepared in (C), it was diluted with the assay buffer to 750 μg/ml and 188 μl each was distributed into tubes. In the case where the membrane fraction of anterior lobes of rat pituitary gland was used, 2 μl of a 0.1 mM compound dissolved in 60% DMSO (dimethylsulfoxide) and 10 μl of 38 nM ^125 I-leuprorelin were added thereto simultaneously. In the case where the membrane fraction of anterior lobes of bovine pituitary gland and the membrane fraction derived from the CHO cells expressing human GnRH receptors were used, 2 μl of a 2 mM compound dissolved in 60% DMSO and 10 μl of 38 nM ^125 I-leuproprelin were added simultaneously. For determining the maximum binding amount, a solution for reaction supplemented with 2 μl of 60% DMSO and 10 μl of 38 nM ^125 I-leuprorelin was prepared. And, for determining the amount of non-specific binding, a solution for reaction supplemented with 2 μl of 100 μM leuprorelin dissolved in 60% DMSO and 10 μl of 38 nM ^125 I-leuprorelin were also prepared simultaneously.
In the cases where membrane fractions of anterior lobes of rat and bovine pituitary were used, reaction was allowed to proceed at 4° C. for 90 minutes, while in the case where the membrane fraction derived from the CHO cells expressing human GnRH receptor was used, reaction was allowed to proceed at 25° C. for 60 minutes. The reaction mixtures were respectively subjected to filtration under sucking with Whatman glass filter (GF-F) processed with polyethyleneimine. After completing the filtration, radioactivity of the ^125 I-leuprorelin remaining on the filter paper was measured with a γ-counter.
By calculation of (TB-SB)/(TB-NSB)×100 (SB: radioactivity obtained when a compound was added, TB: radioactivity for the maximum binding, NSB: radioactivity for the non-specific binding), the binding inhibitory rate of each test compound was determined. Besides, the inhibitory rates were determined by changing the concentrations of test compounds, and the concentration of a test compound inhibiting the specific binding by 50% (IC50 value) was calculated by way of Hill plot.
In the case of `O=C1c2ccccc2C(=O)N1CC(=O)N1c2ccccc2N(Cc2ccc([N+](=O)[O-])cc2)C(=O)[C@H]2CCC[C@H]21` (relative stereo) [compound 195], the IC50 was found to be 0.5 µM. With `O=C1c2ccccc2C(=O)N1CC(=O)N1c2ccccc2N(Cc2cccc([N+](=O)[O-])c2)C(=O)[C@H]2CCC[C@H]21` (relative stereo) [compound 209], the 50% inhibitory concentration (IC50) was 2 µM.

`N#Cc1ccc(CN2C(=O)[C@H]3CCC[C@H]3N(C(=O)CN3C(=O)c4ccccc4C3=O)c3ccccc32)cc1` (relative stereo) [compound 210]: the half-inhibitory concentration (IC50) was determined as 0.4 µM. Still for that read-out and setting: next, `CSc1ccc(CN2C(=O)[C@H]3CCC[C@H]3N(C(=O)CN3C(=O)c4ccccc4C3=O)c3ccccc32)cc1` (relative stereo) [compound 212]: 1 µM. Still for that read-out and setting: next, `O=C1c2ccccc2C(=O)N1CC(=O)N1c2ccccc2N(Cc2ccc(O)cc2)C(=O)[C@H]2CCC[C@H]21` (relative stereo) [compound 214]: 1 µM; `O=C1c2ccccc2C(=O)N1CC(=O)N1c2ccccc2N(Cc2cccc(O)c2)C(=O)[C@H]2CCC[C@H]21` (relative stereo) [compound 215]: 2 µM; `O=C1c2ccccc2C(=O)N1CC(=O)N1c2ccccc2N(CCc2ccccc2)C(=O)[C@H]2CCC[C@H]21` (relative stereo) [compound 217]: 0.7 µM. Still for that read-out and setting: then `O=C1CC(/C=C/c2ccccc2)Nc2ccccc2N1Cc1ccccc1` (centres unmarked) [compound 36], with 2 µM. Turning to `O=C1[C@H]2CCC[C@H]2N(C(=O)CN2C(=O)c3ccccc3C2O)c2ccccc2N1Cc1ccccc1` (some centres unmarked) [compound 65], the IC50 amounted to 14 µM. On to `O=C1c2ccccc2C(O)N1CC(=O)N1c2ccccc2N(Cc2ccccc2)C[C@H]2CCC[C@H]21` (some centres unmarked) [compound 66], for which the IC50 is 8 µM. For the compound `O=C1C2=C(CCCC2)C(=O)N1CC(=O)N1c2ccccc2N(Cc2ccccc2)C(=O)C2CCCC21` (centres unmarked) [compound 76], the IC50 worked out at 1 µM. On the same count and under the same terms, then `COc1cccc(CN2C(=O)C3CCCC3N(C(=O)CN3C(=O)c4ccccc4C3=O)c3ccccc32)c1` (centres unmarked) [compound 111], with 4 µM. Turning to `COc1ccc(CN2C(=O)C3CCCC3N(C(=O)CN3C(=O)c4ccccc4C3=O)c3ccccc32)cc1` (centres unmarked) [compound 112], the IC50 worked out at 2 µM.

In the case of `O=C1c2ccccc2C(=O)N1CC(=O)N1c2ccccc2N(c2ccccc2)C(=O)C2CCCC21` (centres unmarked) [compound 121], the IC50 turned out to be 11 µM. Still for that read-out and setting: next, `O=C1C2CCCCC2C(=O)N1CC(=O)N1c2ccccc2N(Cc2ccccc2)C(=O)C2CCCC21` (centres unmarked) [compound 174]: 5 µM; `O=C1C2CCCCC2C(=O)N1CC(=O)N1c2ccccc2N(Cc2ccccc2)C(=O)[C@H]2CCC[C@H]21` (some centres unmarked) [compound 175]: 1 µM.

For another experiment, the system named is ethanol-induced sleep in mice. The experiment in a line: Effects on ethanol-induced sleep in mice. Type of experiment: in vivo, ICR male mice. Conditions: 30 mg/kg orally, 30 minutes before 25% ethanol i.p.; 8 animals. How it is done: (F) Effects on ethanol-induced sleep in mice
ICR male mice of 4-5 week old were orally administered with test compounds suspended in a physiological saline solution or 5% gum arabic solution at a dosage of 30 mg/kg (8 animals in each group). Thirty minutes later, test animals were intrapritoneally injected with 25% ethanol (0.2 mL/10 g). The duration of sleep was measured as the time from the onset of righting reflex until the righting reflex was regained.
On to `O=C1[C@H]2CCC[C@H]2Nc2ccccc2N1Cc1ccc(Cl)cc1Cl` (relative stereo) [compound 37], for which the “Percentage (%) of sleeping time relative to control” value came to 145%.

For `CN1c2ccccc2N(Cc2ccccc2)C(=O)[C@H]2CCC[C@H]21` (relative stereo) [compound 63], the “Percentage (%) of sleeping time relative to control” value turned out to be 37%. On the same count and under the same terms, then `CC(=O)N1c2ccccc2N(Cc2ccccc2)C(=O)[C@H]2CCC[C@H]21` (relative stereo) [compound 64], with 41%; and `Nc1ccc(CN2C(=O)C3CCCC3=Nc3ccccc32)cc1` (centres unmarked) [compound 17], with 33%. Same read-out and setting: then `O=C1N(Cc2ccccc2)c2ccccc2NC2CCCC12Cc1ccccc1` (centres unmarked) [compound 29], with 50%.

A further experiment has as its system pentobarbital-induced sleep in mice. The experiment in a line: Effect on pentobarbital-induced sleep in mice. The class given is in vivo, ICR male mice. To be noted: 10 mg/kg orally, 30 minutes before sodium pentobarbital 55 mg/kg i.p. The procedure:
(G) Effect on pentobarbital-induced sleep in mice
ICR male mice of 5-6 week old were orally administered with test samples dissolved or suspended in a physiological saline solution or 5% gum solution dosage of 100 mg/kg (2-3 animals in each group), and behavioral observation was conducted at 15, 30, 60 and 120 minutes after the administration.
As the next stage, ICR male mice of 4-5 week old were orally administered with test samples dissolved or suspended in a physiological saline solution or 5% gum arabic solution at a dosage which was one rank lower than the dosage determined as above (8 animals in each group). Thirty minutes after the administration, test animals were administered intraperitoneally with sodium pentobarbital at a dosage of 55 mg/kg. The duration of sleep was measured as the time from the onset of righting reflex until the righting reflex was regained.
`O=C1C2CCCC2=Nc2ccccc2N1Cc1ccncc1` (centres unmarked) [compound 9]: the “Percentage (%) of sleeping time relative to control” value came out at 176%.

The same experiment, now with this note: 20 mg/kg orally, 30 minutes before sodium pentobarbital 55 mg/kg i.p.
With `CN1c2ccccc2N(Cc2ccccc2)C[C@H]2CCC[C@H]21` (relative stereo) [compound 45], the “Percentage (%) of sleeping time relative to control” value was determined as 124%. On the same count and under the same terms, next, `O=C1C2CCCC2=Nc2ccccc2N1Cc1ccccc1F` (centres unmarked) [compound 5]: 140%.

Still in this experiment, the particulars now being: 50 mg/kg orally, 30 minutes before sodium pentobarbital 55 mg/kg i.p.
For the compound `O=C1[C@H]2CCC[C@H]2Nc2ccccc2N1Cc1ccc(Cl)cc1Cl` (relative stereo) [compound 37], the “Percentage (%) of sleeping time relative to control” value came to 128%.

Turning to `O=C1C2CCCC2=Nc2ccccc2N1Cc1ccc(Cl)cc1` (centres unmarked) [compound 4], the “Percentage (%) of sleeping time relative to control” value was found to be 140%.

The test system of the next experiment is GnRH receptor.
Test: not given
To be noted: relative to GnRH obtained from natural sources; cited from earlier work.
In the case of `CCNC(=O)[C@@H]1CCCN1C(=O)[C@H](CCCNC(=N)N)NC(=O)[C@H](CC(C)C)NC(=O)[C@@H](CC(C)C)NC(=O)[C@H](Cc1ccc(O)cc1)NC(=O)[C@H](CO)NC(=O)[C@H](Cc1c[nH]c2ccccc12)NC(=O)[C@H](Cc1c[nH]cn1)NC(=O)[C@@H]1CCC(=O)N1` [leuprorelin], the “affinity to GnRH receptor” value was “higher affinity to GnRH receptor than GnRH obtained from natural sources”.

Tested on in another experiment: not given
Test: not given
Conditions: for example, prostatic cancer; cited from earlier work.
In the case of `CCNC(=O)[C@@H]1CCCN1C(=O)[C@H](CCCNC(=N)N)NC(=O)[C@H](CC(C)C)NC(=O)[C@@H](CC(C)C)NC(=O)[C@H](Cc1ccc(O)cc1)NC(=O)[C@H](CO)NC(=O)[C@H](Cc1c[nH]c2ccccc12)NC(=O)[C@H](Cc1c[nH]cn1)NC(=O)[C@@H]1CCC(=O)N1` [Leuprorelin acetate], the “anti-tumor activity against hormone-dependent cancers” value is recorded as “shows anti-tumor activity”.

The experiment is the same for the next values; noted with them: repeated administration; cited from earlier work.
As to `CCNC(=O)[C@@H]1CCCN1C(=O)[C@H](CCCNC(=N)N)NC(=O)[C@H](CC(C)C)NC(=O)[C@@H](CC(C)C)NC(=O)[C@H](Cc1ccc(O)cc1)NC(=O)[C@H](CO)NC(=O)[C@H](Cc1c[nH]c2ccccc12)NC(=O)[C@H](Cc1c[nH]cn1)NC(=O)[C@@H]1CCC(=O)N1` [Leuprorelin acetate], the productivity of testosterone result is on record as “reduce the productivity of testosterone to the level of castration”.
